Consider 11 molecules from US7144856B2, “Inhibitors of dipeptidyl peptidase I” (Probiodrug AG, priority 2001, dated 2006).

For data set [1], the target named is T1, DP I (Rattus norvegicus, UniProt P80067).
T1 sequence (P80067 with tags, fused parts or gaps): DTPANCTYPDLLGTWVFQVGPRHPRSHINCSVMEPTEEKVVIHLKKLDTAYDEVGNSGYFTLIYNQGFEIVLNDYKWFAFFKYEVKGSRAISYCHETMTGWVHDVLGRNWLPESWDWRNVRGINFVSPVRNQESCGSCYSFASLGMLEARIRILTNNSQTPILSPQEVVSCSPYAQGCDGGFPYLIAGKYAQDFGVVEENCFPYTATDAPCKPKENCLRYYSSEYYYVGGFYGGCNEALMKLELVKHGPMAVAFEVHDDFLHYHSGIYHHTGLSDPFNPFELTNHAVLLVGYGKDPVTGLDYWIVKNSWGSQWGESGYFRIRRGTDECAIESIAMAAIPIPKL
The settings on record: background, literature; cited from earlier work.

The target in a further data set is cathepsin B (Homo sapiens, UniProt P07858). Nature of the data set: cross-reactivity against cathepsin B, IC50. The settings on record: n.i. = no inhibition; read-out: IC50 Cath. B. It is filed as biochemical. The protocol: (§1) Selected compounds, based on the general formula (II) below, were tested concerning their inhibitory potential against DP I and for their cross-reactivity against three more cysteine proteases, namely cathepsin B, H, L and another dipeptidyl peptidase, dipeptidyl peptidase IV (DP IV).

The target of the next data set is T2, cathepsin H (Homo sapiens, UniProt P09668).
T2 sequence (P09668 98-335): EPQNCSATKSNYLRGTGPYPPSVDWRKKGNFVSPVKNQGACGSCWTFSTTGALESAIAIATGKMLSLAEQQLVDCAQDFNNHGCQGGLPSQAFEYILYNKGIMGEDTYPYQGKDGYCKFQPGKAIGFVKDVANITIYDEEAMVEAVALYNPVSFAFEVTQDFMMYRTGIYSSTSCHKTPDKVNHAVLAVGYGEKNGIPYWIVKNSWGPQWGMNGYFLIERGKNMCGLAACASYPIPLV
Nature of the data set: cross-reactivity against cathepsin H, IC50. The settings on record: n.i. = no inhibition; for IC50: read-out: IC50 Cath. H. It is filed as biochemical. How it is done: as §1

Another data set concerns the target cathepsin L (Homo sapiens, UniProt P07711). Nature of the data set: cross-reactivity against cathepsin L, IC50. It counts as biochemical. To be noted: n.i. = no inhibition; read-out: IC50 Cath. L. The protocol: as §1
For data set [2], the target named is dipeptidyl peptidase IV (DP IV) (Homo sapiens, UniProt P27487). Nature of the data set: cross-reactivity against dipeptidyl peptidase IV, IC50. To be noted: n.i. = no inhibition. It counts as biochemical. The protocol:
as §1

Data set [3] has as its target T3, DP I (Rattus norvegicus, UniProt P80067).
T3 construct: purchased Qiagen
Nature of the data set: determination of second order rate constant kinact/Ki for DP I. It is filed as biochemical. To be noted: substrate Gly-Arg-pNA 1 mM and 0.5 mM. The protocol:
For the Ki-value determination a UV-spectrophotometer (Lambda 20, PerkinElmer, Überlingen, Germany) was used. The reaction was monitored via the p-nitroaniline released from the substrate (Gly-Arg-pNA) at λ=390 nm. DP I (1 U/mg, assay condition: Tagzyme handbook, Qiagen, Hilden, Germany) was diluted in MES-buffer (1:1000) and preincubated and activated for 30 min on crashed ice. The reaction mixture consists: 500 μl stock solution MES-buffer, 500 μl HCl*Gly-L-Arg-pNA, 250 μl inhibitor, 50 μl DP I. In order to calculate the second order rate constant (kinact/Ki) two substrate concentrations (1 mM and 0.5 mM in the incubation mixture) were combined with 6 inhibitor concentrations (5*10^−7 M to 3*10^−8 M in the assay). From the product-time-course the observed first order rate constant was determined.
Plotting 1/kobs versus substrate concentration allows the calculation of the real first order rate constant of inactivation for each inhibitor concentration at [S]=0.
Based on this equation Ki and kinact can be determined.

Data set [4] has as its system L-929 (murine fibroblast cell line). Nature of the data set: cytotoxicity assay, L-929 cells. It is filed as cell-based. The settings on record: 24 hours incubation. The protocol:
(§2) The toxicological potential of the compounds provided therein against murine cell lines is different from their toxicological potential against human cell lines. Selected compounds, based on the general formula (II) above, were tested concerning their cytotoxicological potential against the two cell-lines, L-929 (murine fibroblast cell line) and Hep-G2 (human hepatocyte cell line) cells.
(§3) HEP-G2, a human hepatocyte cell line (ACC180) and L-929, a mouse fibroplast cell line (ACC2) were grown in RPMI 1604 with 10% fetal bovine serum and 60 μg/ml gentamycin.
(§4) All cultures were fed every 2–3 days and incubated in an humified chamber at 37° C. and 5% CO2. For determining the cytotoxicity of different DPI-inhibitors, we used the CytoTox96™ Non-radioactive Cytotoxicity Assay (Promega, Madison, Wis., USA). HEP-G2 (30000 cells per well) and L-929 (20000 cells per well) were placed in 96 well plates in RPMI 1604 with 10% fetal bovine serum and grown for 24 hours. The cells were then incubated with various concentrations of different DPI-inhibitors for 24 hours in RPMI 1604 with 10% fetal bovine serum. One hour after addition of MTS-solution, the reaction was stopped by adding stop-solution of Promega. The absorbance was measured at 490 nm with a spectrophotometer. All experiments were performed twice simultaneously in three wells.

The subject of data set [5] is Hep-G2 (human hepatocyte cell line). Nature of the data set: cytotoxicity assay, Hep-G2 cells. It counts as cell-based. To be noted: 24 hours incubation. How it is done:
as §2, §3, §4

Counter-ions that a name gives are not always drawn.

Sequence of dipeptidyl peptidase IV (DP IV) (P27487 whole entry, species assumed): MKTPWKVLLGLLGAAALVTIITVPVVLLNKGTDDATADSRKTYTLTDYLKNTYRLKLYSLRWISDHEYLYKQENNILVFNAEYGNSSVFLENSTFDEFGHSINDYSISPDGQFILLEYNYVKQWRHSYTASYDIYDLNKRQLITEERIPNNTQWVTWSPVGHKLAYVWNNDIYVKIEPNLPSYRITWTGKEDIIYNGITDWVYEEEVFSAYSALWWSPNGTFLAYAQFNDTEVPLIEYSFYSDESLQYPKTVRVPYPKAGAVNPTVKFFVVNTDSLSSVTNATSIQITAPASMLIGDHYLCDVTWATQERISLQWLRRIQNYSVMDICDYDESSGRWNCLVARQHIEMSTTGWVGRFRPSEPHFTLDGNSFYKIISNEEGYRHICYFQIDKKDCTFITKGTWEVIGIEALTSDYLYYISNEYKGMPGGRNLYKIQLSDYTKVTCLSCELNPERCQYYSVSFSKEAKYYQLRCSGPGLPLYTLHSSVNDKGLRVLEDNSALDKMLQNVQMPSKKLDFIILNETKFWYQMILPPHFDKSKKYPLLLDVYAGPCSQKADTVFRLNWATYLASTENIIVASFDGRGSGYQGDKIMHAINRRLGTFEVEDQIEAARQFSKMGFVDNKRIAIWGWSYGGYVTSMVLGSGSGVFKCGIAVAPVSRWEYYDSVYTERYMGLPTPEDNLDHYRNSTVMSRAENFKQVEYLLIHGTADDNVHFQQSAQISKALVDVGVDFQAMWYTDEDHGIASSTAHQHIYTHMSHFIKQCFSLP
Sequence of cathepsin L (P07711 114-333): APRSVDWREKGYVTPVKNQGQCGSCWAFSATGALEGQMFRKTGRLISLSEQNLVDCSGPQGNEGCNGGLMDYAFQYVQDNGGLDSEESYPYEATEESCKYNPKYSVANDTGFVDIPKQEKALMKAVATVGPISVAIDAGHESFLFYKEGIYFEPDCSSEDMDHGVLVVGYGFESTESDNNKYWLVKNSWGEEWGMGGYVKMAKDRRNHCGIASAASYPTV

On to `Cc1ccc(C(=O)ONC(=O)[C@H](Cc2ccccc2)NC(=O)CN)cc1` (as salt: TFA) [compound 12, TFA*H-Gly-L-Phe-NHO-Bz-p-CH3], for which the melting point – broadly, the temperature of the solid-liquid transition – was in the range of 98 to 101 °C.

In turn, `CNCC(=O)N[C@@H](Cc1ccccc1)C(=O)NOC(=O)c1ccccc1` (as salt: TFA) [compound 14, TFA*H-Sar-L-Phe-NHO-Bz] showed a melting point of 69 to 71 °C.

As for `CC(C)C[C@H](NC(=O)[C@H]1O[C@@H]1C(=O)O)C(=O)NCCCCN=C(N)N` [E-64, reference compound], the “inhibition of DP I (in words)” value on DP I [1] is “weak inhibition”.

As for `CC(=O)ONC(=O)[C@H](Cc1ccccc1)NC(=O)CN` [compound 10, TFA*H-Gly-L-Phe-NHO-Ac], the IC50 (usually the midpoint of a concentration-inhibition curve) at cathepsin B worked out at 117 µM; at cathepsin L it was 156 µM. The “IC50 Cath. H” value against cathepsin H is reported as “n.i”. Besides, the “IC50 DP IV” value in data set [2] is listed as “n.i”. The kinact/KI – broadly, the second-order rate constant of inactivation – at DP I [3] came out at 39000 M⁻¹ s⁻¹. The “LD50 L-929” value in [4] turned out to be 4.3 mg/mL. In addition, the “LD50 Hep-G2” value in data set [5] came out at 1.6 mg/mL.

Take `NCC(=O)N[C@@H](Cc1ccccc1)C(=O)NOC(=O)c1ccccc1` [compound 11, TFA*H-Gly-L-Phe-NHO-Bz]: the IC50 on cathepsin B stood at 37.7 µM; at cathepsin L it was 36.9 µM. For the same molecule, the “IC50 Cath. H” value against cathepsin H is given as “n.i”. Besides, in [2], the “IC50 DP IV” value was “n.i”. Moreover, on DP I [3], the kinact/KI is 400000 M⁻¹ s⁻¹. In data set [4], the “LD50 L-929” value came to 1.0 mg/mL. In addition, in data set [5], the “LD50 Hep-G2” value was 0.8 mg/mL.

In the case of `Cc1ccc(C(=O)ONC(=O)[C@H](Cc2ccccc2)NC(=O)CN)cc1` [compound 12, TFA*H-Gly-L-Phe-NHO-Bz-p-CH3], the values for the IC50 on cathepsin B, on cathepsin H and on cathepsin L were 34 µM, 154 µM and 33.1 µM, respectively. The “IC50 DP IV” value in data set [2] is recorded as “n.i”. Moreover, at DP I [3], the kinact/KI came to 19000 M⁻¹ s⁻¹.

Consider `NCC(=O)N[C@@H](Cc1ccccc1)C(=O)NOC(=O)c1ccc([N+](=O)[O-])cc1` [compound 13, TFA*H-Gly-L-Phe-NHO-Bz-p-NO2], for which the IC50 on cathepsin B stood at 5.31 µM; at cathepsin H, 34.7 µM; at cathepsin L it was 7.32 µM. The “IC50 DP IV” value in data set [2] is “n.i”. On DP I [3], the second-order inactivation constant (kinact/KI) stood at 79000 M⁻¹ s⁻¹. Also, the “LD50 L-929” value in data set [4] was 2.3 mg/mL. For the same molecule, the “LD50 Hep-G2” value in data set [5] turned out to be 0.8 mg/mL.

With `CNCC(=O)N[C@@H](Cc1ccccc1)C(=O)NOC(=O)c1ccccc1` [compound 14, TFA*H-Sar-L-Phe-NHO-Bz], the results for the concentration for half-maximal inhibition (IC50) on cathepsin B, on cathepsin H and at cathepsin L were 41.8 µM, 205 µM and 4.61 µM, respectively. The “IC50 DP IV” value in [2] is given as “n.i”. Moreover, the kinact/KI at DP I [3] turned out to be 140000 M⁻¹ s⁻¹.

As to `CC(=O)N[C@@H](CC(C)C)C(=O)N[C@@H](CC(C)C)C(=O)N[C@H](C=O)CCCNC(=N)N` [leupeptin, reference compound], on DP I [1], the “inhibition of DP I (in words)” value is reported as “weak inhibition”.

B1: chicken cystatin (protein, UniProt P01038 24-139, looked up)
Cystatin: SEDRSRLLGAPVPVDENDEGLQRALQFAMAEYNRASNDKYSSRVVRVISAKRQLVSGIKYILQVEIGRTTCPKSSGDLQSCEFHDEPEMAKYTTCTFVVYSIPWLNQIKLLESKCQ
With B1, the “inhibition of DP I (in words)” value with DP I [1] is “Stronger reversible inhibitors”.

B2: stefin A (protein, UniProt P01040 1-98, looked up)
Cystatin-A: MIPGGLSEAKPATPEIQEIVDKVKPQLEEKTNETYGKLEAVQYKTQVVAGTNYYIKVRAGDNKYMHLKVFKSLPGQNEDLVLTGYQVDKNKDDELTGF
For B2, the “inhibition of DP I (in words)” value with DP I [1] is recorded as “Stronger reversible inhibitors”.
